Where a name gives a salt, the structure may show the parent alone.
Columns and labels:
EGFR = target: T1, EGFR (Homo sapiens, UniProt P00533); assay: EGFR substrate phosphorylation assay (HTRF); assay type: biochemical
T1 construct: made in house; host or cells: baculovirus expression system
Outline: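 Baculovirus-expressed EGFR (0.8 nM) or ErbB2 (10 nM) in enzyme mix, preincubated 1 h at 20 °C with compound (0.00027–47.6 μM final), then 90 min at 20 °C with substrate mix of 20 μM ATP, 0.8 uM biotinylated Peptide C, MnCl2, MOPS pH 7.5. Phosphotyrosine by HTRF; pIC50 reported.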

HN5 tumor cells = assay: Cell growth inhibition assay (CellTiter-Glo), HN5; assay type: cell-based, Human; conditions: Homo sapiens, 72 h; 3 days incubation
Outline: (§1)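 Cells plated at 500 cells/well in their growth media, dosed next day with nine-step 1:3 compound dilutions (final DMSO 0.2%), then incubated 3 days at 37° C, 5% CO2. Total ATP read by CellTiter-Glo luminescence as a surrogate for cell number; IC50 interpolated from 4-parameter fit versus DMSO controls.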

BT474 tumor cells = assay: Cell growth inhibition assay (CellTiter-Glo), BT474; assay type: cell-based, Human; conditions: Homo sapiens, BT-474, 72 h, 3 days incubation
SK-MEL-3 tumor cells = assay: Cell growth inhibition assay (CellTiter-Glo), SK-MEL-3; assay type: cell-based, Human; conditions: for IC50: Homo sapiens, SK-MEL3
Outline: as §1

T1 sequence (P00533 25-1210): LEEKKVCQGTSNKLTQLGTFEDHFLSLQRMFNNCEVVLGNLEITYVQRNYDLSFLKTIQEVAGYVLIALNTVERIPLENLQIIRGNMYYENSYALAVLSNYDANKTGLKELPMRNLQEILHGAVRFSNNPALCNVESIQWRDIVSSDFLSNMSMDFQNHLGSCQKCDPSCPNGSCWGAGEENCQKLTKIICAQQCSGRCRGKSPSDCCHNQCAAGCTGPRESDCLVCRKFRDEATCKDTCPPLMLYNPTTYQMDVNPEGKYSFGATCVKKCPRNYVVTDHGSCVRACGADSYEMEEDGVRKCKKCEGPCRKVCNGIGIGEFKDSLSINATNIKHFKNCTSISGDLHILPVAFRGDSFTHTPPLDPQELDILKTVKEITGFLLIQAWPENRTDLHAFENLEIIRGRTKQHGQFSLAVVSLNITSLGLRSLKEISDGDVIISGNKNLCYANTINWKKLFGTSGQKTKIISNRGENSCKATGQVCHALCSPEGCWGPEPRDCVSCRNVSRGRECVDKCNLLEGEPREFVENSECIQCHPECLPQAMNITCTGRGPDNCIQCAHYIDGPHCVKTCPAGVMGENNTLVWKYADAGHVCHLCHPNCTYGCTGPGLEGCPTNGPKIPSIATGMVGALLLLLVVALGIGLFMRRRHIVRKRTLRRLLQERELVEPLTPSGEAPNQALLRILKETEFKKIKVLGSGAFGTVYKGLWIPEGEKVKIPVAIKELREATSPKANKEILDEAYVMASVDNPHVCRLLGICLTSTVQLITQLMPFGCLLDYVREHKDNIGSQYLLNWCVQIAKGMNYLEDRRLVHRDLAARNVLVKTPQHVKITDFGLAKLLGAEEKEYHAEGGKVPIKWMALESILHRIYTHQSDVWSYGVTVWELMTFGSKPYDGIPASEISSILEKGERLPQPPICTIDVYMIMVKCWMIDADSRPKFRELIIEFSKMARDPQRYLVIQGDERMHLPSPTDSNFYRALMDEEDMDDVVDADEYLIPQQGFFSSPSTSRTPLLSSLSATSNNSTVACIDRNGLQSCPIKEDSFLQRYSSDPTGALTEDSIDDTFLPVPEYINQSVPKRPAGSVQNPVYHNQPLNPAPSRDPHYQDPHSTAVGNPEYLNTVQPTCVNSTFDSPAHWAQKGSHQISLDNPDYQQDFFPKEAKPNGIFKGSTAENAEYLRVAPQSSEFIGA

Structure (SMILES) | IC50 (EGFR) [µM] | IC50 (HN5 tumor cells) [µM] | IC50 (BT474 tumor cells) [µM] | IC50 (SK-MEL-3 tumor cells) [µM] | Activity in SK-MEL-3 Tumor Cells (SK-MEL-3 tumor cells)
O=S(=O)(Nc1cccc(-c2nc(N3CCCC3)sc2-c2ccnc(Nc3ccc(N4CCN(CCF)CC4)c(F)c3)n2)c1)c1c(F)cccc1F [Example 21, 2,6-Difluoro-N-{3-[5-[2-({3-fluoro-4-[4-(2-fluoroethyl)-1-piperazinyl]phenyl}amino)-4-pyrimidinyl]-2-(1-pyrrolidinyl)-1,3-thiazol-4-yl]phenyl}benzenesulfonamide] | < 0.1 | 0.1 to 1 | > 1 | < 0.1 | 
O=S(=O)(Nc1cc(-c2nc(N3CCCC3)oc2-c2ccnc(Nc3ccc(N4CCN(CCF)CC4)c(F)c3)n2)ccc1F)c1c(F)cccc1F [Example 114] | > 1 | > 1 | > 1 |  | + (activity of >1 μM in SK-MEL-3 tumor cells)
COc1cc(N2CCN(CCS(C)(=O)=O)CC2)c(C)cc1Nc1nccc(-c2sc(N3CCOCC3)nc2-c2cccc(NS(=O)(=O)c3c(F)cccc3F)c2)n1 [Example 128] | < 0.1 | 0.1 to 1 | 0.1 to 1 | < 0.1 | 
O=S(=O)(Nc1cc(-c2nc(N3CCOCC3)sc2-c2ccnc(Nc3ccc(N4CCOCC4)nc3)n2)ccc1F)c1c(F)cccc1F [Example 121] | 0.1 to 1 | 0.1 to 1 | > 1 | 0.1 to 1 | 
CS(=O)(=O)c1cccc(Nc2nccc(-c3sc(N4CCOCC4)nc3-c3cccc(NS(=O)(=O)c4c(F)cccc4F)c3Cl)n2)c1 [Example 145] | > 1 | > 1 | > 1 | < 0.1 | 
CC(C)c1nc(-c2ccnc(NS(=O)(=O)c3c(F)cccc3F)c2)c(-c2ccnc(Nc3cnc(N4CCOCC4)c(F)c3)n2)s1 [Example 33] | > 1 | > 1 | > 1 | < 0.1 | 
Cc1nc(-c2cccc(NS(=O)(=O)c3c(F)cccc3F)c2)c(-c2ccnc(Nc3ccc(N4CCOCC4)nc3)n2)s1 [Example 133] | > 1 | 0.1 to 1 | > 1 | < 0.1 | 
CC(C)c1nc(-c2ccc(F)c(NS(=O)(=O)c3ccccc3F)c2)c(-c2ccnc(Nc3ccc(N4CCN(CCS(C)(=O)=O)CC4)c(F)c3)n2)s1 [Example 22, 2-Fluoro-N-{2-fluoro-5-[5-{2-[(3-fluoro-4-}4-[2-(methylsulfonyl)ethyl]-1-piperazinyl}phenyl)amino]-4-pyrimidinyl}-2-(1-methylethyl)-1,3-thiazol-4-yl]phenyl}benzenesulfonamide hydrochloride] | 0.1 to 1 | > 1 | > 1 | 0.1 to 1 | 
COc1cc(N2CCC(N3CCN(CCS(C)(=O)=O)CC3)CC2)ccc1Nc1nccc(-c2sc(C(C)C)nc2-c2cccc(NS(=O)(=O)c3c(F)cccc3F)c2)n1 [Example 20, 2,6-Difluoro-N-{3-[2-(1-methylethyl)-5-(2-{[2-(methyloxy)-4-(4-{4-[2-(methylsulfonyl)ethyl]-1-piperazinyl}-1-piperidinyl)phenyl]amino}-4-pyrimidinyl)-1,3-thiazol-4-yl]phenyl}benzenesulfonamide] | < 0.1 | > 1 | > 1 | 0.1 to 1 | 
CC(=O)N1CCN(c2ccc(Nc3nccc(-c4sc(C(C)C)nc4-c4cccc(NS(=O)(=O)c5cn(C)cn5)c4)n3)cn2)CC1 [Example 36] | < 0.1 | > 1 | > 1 | 0.1 to 1 | 
CC(C)c1nc(-c2cccc(NS(=O)(=O)c3c(F)cccc3F)c2)c(-c2ccnc(Nc3ccc(OC4CCN(CCS(C)(=O)=O)CC4)c(F)c3)n2)s1 [Example 13, 2,6-Difluoro-N-{3-[5-(2-{[3-fluoro-4-({1-[2-(methylsulfonyl)ethyl]-4-piperidinyl}oxy)phenyl]amino}-4-pyrimidinyl)-2-(1-methylethyl)-1,3-thiazol-4-yl]phenyl}benzenesulfonamide hydrochloride] | 0.1 to 1 | 0.1 to 1 | > 1 | < 0.1 | 
Cc1cc(N2CCOCC2)ncc1Nc1nccc(-c2sc(N3CCCC3)nc2-c2cccc(NS(=O)(=O)c3c(F)cccc3F)c2)n1 [Example 124] | > 1 | > 1 | > 1 |  | + (activity of >1 μM in SK-MEL-3 tumor cells)
O=S(=O)(Nc1cccc(-c2nc(N3CCOCC3)sc2-c2ccnc(Nc3ccc(N4CCOCC4)nc3)n2)c1F)c1c(F)cccc1F [Example 122] | 0.1 to 1 | 0.1 to 1 | > 1 | < 0.1 | 
CC(C)c1nc(-c2cccc(NS(=O)(=O)C3CCCCC3)c2)c(-c2ccnc(Nc3ccc(N4CCOCC4)c(F)c3)n2)s1 [Example 38] | > 1 | > 1 | > 1 |  | + (activity of >1 μM in SK-MEL-3 tumor cells)
